Data on 2 molecules can be found in patent publication US8324232B2, “4-pyrimidinesulfamide derivative” (Actelion Pharmaceuticals Ltd., priority 2007, dated 2012).

Data set [1] in a line: Pharmacokinetics in the rat after single-dose oral administration. It is filed as in vivo. The following applies: male Wistar rats, plasma; for half-life: oral gavage 10 mg/kg; for clearance: oral, 10 mg/kg. Here is the method:
Pharmacokinetics in the Rat After Single-Dose Oral Administration
Male Wistar rats with a body weight of 200-250 g were used for pharmacokinetic experiments after an acclimatization period of at least 7 days. All animals were housed under conditions in accordance with the NIH guidelines. Two days prior to the experiment, rats were anesthetized with a mixture of ketamin (90 mg/kg) and xylazine 2% (10 mg/kg) i.p. A catheter was implanted under aseptic conditions into the jugular vein to allow for multiple blood sampling. After recovery from general anesthesia, animals were housed individually under standard laboratory conditions in Makrolon type-3 cages with wire mesh tops and standardized softwood bedding. Animals had free access to water and food during the recovery period and the entire duration of the experiment.
Pharmacokinetic experiments were performed in Wistar rats (m=2-3) after jugular vein cannulation to allow for serial blood sampling. Test compounds were administered orally by gavage at doses of 10 mg/kg. Blood was then sampled at pre-defined time points over a period of 24 h and plasma prepared by centrifugation. Drug concentrations in plasma were quantified using liquid chromatography coupled to mass spectrometry (limit of quantification: 4.6 ng/mL). Pharmacokinetic evaluation was performed using non-compartmental analysis.

Data set [2] deals with T1, human recombinant ETA receptors (Homo sapiens, UniProt P25101).
T1 construct: expressed in transfected cells; host or cells: CHO cells (microsomal membranes)
T1 sequence (P25101 21-427): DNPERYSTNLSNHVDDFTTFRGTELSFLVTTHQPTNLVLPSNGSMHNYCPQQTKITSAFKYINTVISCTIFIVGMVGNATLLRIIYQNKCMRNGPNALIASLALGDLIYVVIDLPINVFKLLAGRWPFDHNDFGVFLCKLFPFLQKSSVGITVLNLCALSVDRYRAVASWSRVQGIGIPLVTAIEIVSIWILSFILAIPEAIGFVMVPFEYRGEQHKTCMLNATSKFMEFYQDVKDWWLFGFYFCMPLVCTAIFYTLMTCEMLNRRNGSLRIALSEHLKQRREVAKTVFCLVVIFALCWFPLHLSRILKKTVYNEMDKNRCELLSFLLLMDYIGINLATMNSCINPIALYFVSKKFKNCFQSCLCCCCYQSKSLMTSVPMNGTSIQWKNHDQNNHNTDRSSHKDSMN
The data set can be described thus: Inhibition of endothelin binding to membranes from CHO cells carrying human ETA receptors. As for the experimental part: 1) Inhibition of Endothelin Binding to Membranes from CHO Cells Carrying Human ET Receptors
For competition binding studies, membranes of CHO cells expressing human recombinant ETA or ETB receptors were used.
All the test compounds were dissolved, diluted and added in DMSO.

Another data set deals with T2, ETA receptors (Rattus norvegicus, UniProt P26684).
T2 construct: The thoracic aorta or trachea were excised, dissected and cut in 3-5 mm rings; from tissue; host or cells: thoracic aorta rings of adult Wistar rats, endothelium removed
T2 sequence (P26684 21-426): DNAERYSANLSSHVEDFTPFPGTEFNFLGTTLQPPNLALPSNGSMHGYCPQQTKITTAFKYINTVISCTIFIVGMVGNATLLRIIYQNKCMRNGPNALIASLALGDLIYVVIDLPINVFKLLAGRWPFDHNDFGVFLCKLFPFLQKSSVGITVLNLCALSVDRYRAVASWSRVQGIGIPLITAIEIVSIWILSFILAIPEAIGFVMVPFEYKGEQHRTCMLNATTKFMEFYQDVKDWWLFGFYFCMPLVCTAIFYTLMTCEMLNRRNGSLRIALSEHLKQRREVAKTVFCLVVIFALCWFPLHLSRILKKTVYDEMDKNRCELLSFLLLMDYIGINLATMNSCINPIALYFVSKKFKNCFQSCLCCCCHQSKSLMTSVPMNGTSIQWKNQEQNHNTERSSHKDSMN
Nature of the data set: Inhibition of endothelin-1-induced contraction on isolated rat aortic rings. Here is the method: 2) Inhibition of Endothelin-Induced Contractions on Isolated Rat Aortic Rings (ETA Receptors) and Rat Tracheal Rings (ETB Receptors)
The functional inhibitory potency of the endothelin antagonists was assessed by their inhibition of the contraction induced by endothelin-1 on rat aortic rings (ETA receptors) and of the contraction induced by sarafotoxin S6c on rat tracheal rings (ETB receptors). Adult Wistar rats were anesthetized and exsanguinated. The thoracic aorta or trachea were excised, dissected and cut in 3-5 mm rings. The endothelium/epithelium was removed by gentle rubbing of the intimal surface. Each ring was suspended in a 10 mL isolated organ bath filled with Krebs-Henseleit solution (in mM; NaCl 115, KCl 4.7, MgSO4 1.2, KH2PO4 1.5, NaHCO3 25, CaCl2 2.5, glucose 10) kept at 37° C. and gassed with 95% O2 and 5% CO2. The rings were connected to force transducers and isometric tension was recorded (EMKA Technologies SA, Paris, France). The rings were stretched to a resting tension of 3 g (aorta) or 2 g (trachea). […] The functional inhibitory potency of the test compound was assessed by calculating the concentration ratio, i.e. the shift to the right of the EC50 induced by different concentrations of test compound. […]

In general, half-life refers to the time in which the quantity being followed falls by half. With `CCCNS(=O)(=O)Nc1ncnc(OCCOc2ncc(Br)cn2)c1-c1ccc(Br)cc1` [Reference Compound, Propylsulfamic acid [5(4 bromo-phenyl)-6-[2-(5-bromo-pyrimidin-2-yloxy)-ethoxy]-pyrimidin-4-yl]-amide, reference compound], in data set [1], the half-life was in the range of 2.8 to 4.2 h and the clearance lay in the range of 5.7 to 10 mL/min/kg.
For orientation: IC50 means the concentration needed to halve the response being measured. `NS(=O)(=O)Nc1ncnc(OCCOc2ncc(Br)cn2)c1-c1ccc(Br)cc1` [Compound of formula I, {5-(4-bromo-phenyl)-6-[2-(5-bromo-pyrimidin-2-yloxy)-ethoxy]-pyrimidin-4-yl}-sulfamide]: in data set [1], the half-life was 8.7 h and the clearance is 1.3 mL/min/kg. Moreover, the half-inhibitory concentration (IC50) in data set [2] came out at 0.0037 µM. This molecule also gave a Kb on ETA receptors of 0.2 µM.
